Laboratory results reported in US9738612B2, “Methylacryloyl benzimidazolone derivative and anti-tumour use thereof” (SHANGHAI NATURE STANDARD R&D AND BIOTECH CO., LTD, priority 2014, dated 2017).

Columns and labels:
[1] = system: PI3K/Akt/mTOR signaling pathway; experiment: Inhibition test to signaling pathway at the cellular level (FIG. 4); assay type: cell-based; details: different concentrations, FIG. 4, in words
Method: A549 cells were seeded at a density of 2×10^5 cells/well into 12-well plates, and adhered overnight. Then the medium was discarded and the plates were washed three times with normal saline. After that, fresh serum-free medium was added to starve cells for 24 hours, compounds to be tested were added to work for 1 h, then IGF-I was added to stimulated for 10 min, followed byadding a lysis buffer on ice to lyse for half an hour. The cell lysates were collected and centrifuged at 20000×g at 4° C. for 10min, then the supernatant was collected. Protein was quantified by MicroBCA protein quantification Assay kit, and the protein concentration was normalized. The supernatant was mixed with the 4×SDS sample buffer [200 mM Tris.Cl (pH 6.8), 400 mM DTT, 8% SDS, 0.4% bromophenol blue, 40% glycerol] and boiled for 15 min. After cooling at room temperature, aliquots were loaded on polyacrylamide gel, and electrophoresed in Tris-glycine electrophoretic buffer (25 mM Tris, 250 mM glycine, 0.1% SDS) at 80-120 V for about 2 h. Proteins were transferred from the gel to a nitrocellulose membrane by a semi-dry method. Transferring conditions: transfer buffer (39 mM glycine, 48 mM Tris base, 0.037% SDS, 20% methanol); transfer current 25 mA; transfer time 2 h. After transfer, Ponceau S staining was used to determine the transfer efficiency and the positions of protein bands on the nitrocellulose membranes. […]

[2] = system: SGK(h); experiment: Tumor-associated kinase inhibition test; assay type: biochemical, human; details: 10 μM
From the text: (§1) Eurofins Pharma Discovery Services UK Limited completed and reported this experiment.

[3] = molecular target: T1, JNK2α2(h) (Homo sapiens, UniProt P45984); experiment: Tumor-associated kinase inhibition test; assay type: biochemical; details: read-out: Inhibitory rate (%)
T1 construct: purchased Eurofins Pharma Discovery Services UK Limited (contract testing)
From the text: as §1

[4] = molecular target: T2, Flt3(h) (Homo sapiens, UniProt P36888); experiment: Tumor-associated kinase inhibition test; assay type: biochemical; details: read-out: Inhibitory rate (%)
T2 construct: purchased Eurofins Pharma Discovery Services UK Limited (contract testing)
From the text: as §1

[5] = molecular target: T3, PI3KC2α(h) (Homo sapiens, UniProt O00443); experiment: Tumor-associated kinase inhibition test; assay type: biochemical; details: read-out: Inhibitory rate (%)
T3 construct: purchased Eurofins Pharma Discovery Services UK Limited (contract assay)
From the text: as §1

[6] = molecular target: T4, CaMKI(h) (Homo sapiens, UniProt Q14012); experiment: Tumor-associated kinase inhibition test; assay type: biochemical; details: read-out: Inhibitory rate (%)
T4 construct: purchased Eurofins Pharma Discovery Services UK Limited (contract assay service)
T4 sequence (Q14012 whole entry): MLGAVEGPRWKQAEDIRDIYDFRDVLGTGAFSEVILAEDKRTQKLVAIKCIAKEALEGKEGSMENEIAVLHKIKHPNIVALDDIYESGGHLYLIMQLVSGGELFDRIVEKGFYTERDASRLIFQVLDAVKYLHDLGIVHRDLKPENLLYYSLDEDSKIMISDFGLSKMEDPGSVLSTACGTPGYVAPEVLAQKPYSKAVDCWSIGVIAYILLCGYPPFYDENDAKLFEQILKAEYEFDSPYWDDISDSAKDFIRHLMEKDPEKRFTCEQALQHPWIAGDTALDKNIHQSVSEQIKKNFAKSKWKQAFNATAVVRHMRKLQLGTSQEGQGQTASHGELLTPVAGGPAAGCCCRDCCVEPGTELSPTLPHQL
From the text: as §1

[7] = molecular target: T5, PKCμ(h) (Homo sapiens, UniProt Q15139); experiment: Tumor-associated kinase inhibition test; assay type: biochemical; details: read-out: Inhibitory rate (%)
T5 construct: purchased Eurofins Pharma Discovery Services UK Limited
T5 sequence (Q15139 whole entry): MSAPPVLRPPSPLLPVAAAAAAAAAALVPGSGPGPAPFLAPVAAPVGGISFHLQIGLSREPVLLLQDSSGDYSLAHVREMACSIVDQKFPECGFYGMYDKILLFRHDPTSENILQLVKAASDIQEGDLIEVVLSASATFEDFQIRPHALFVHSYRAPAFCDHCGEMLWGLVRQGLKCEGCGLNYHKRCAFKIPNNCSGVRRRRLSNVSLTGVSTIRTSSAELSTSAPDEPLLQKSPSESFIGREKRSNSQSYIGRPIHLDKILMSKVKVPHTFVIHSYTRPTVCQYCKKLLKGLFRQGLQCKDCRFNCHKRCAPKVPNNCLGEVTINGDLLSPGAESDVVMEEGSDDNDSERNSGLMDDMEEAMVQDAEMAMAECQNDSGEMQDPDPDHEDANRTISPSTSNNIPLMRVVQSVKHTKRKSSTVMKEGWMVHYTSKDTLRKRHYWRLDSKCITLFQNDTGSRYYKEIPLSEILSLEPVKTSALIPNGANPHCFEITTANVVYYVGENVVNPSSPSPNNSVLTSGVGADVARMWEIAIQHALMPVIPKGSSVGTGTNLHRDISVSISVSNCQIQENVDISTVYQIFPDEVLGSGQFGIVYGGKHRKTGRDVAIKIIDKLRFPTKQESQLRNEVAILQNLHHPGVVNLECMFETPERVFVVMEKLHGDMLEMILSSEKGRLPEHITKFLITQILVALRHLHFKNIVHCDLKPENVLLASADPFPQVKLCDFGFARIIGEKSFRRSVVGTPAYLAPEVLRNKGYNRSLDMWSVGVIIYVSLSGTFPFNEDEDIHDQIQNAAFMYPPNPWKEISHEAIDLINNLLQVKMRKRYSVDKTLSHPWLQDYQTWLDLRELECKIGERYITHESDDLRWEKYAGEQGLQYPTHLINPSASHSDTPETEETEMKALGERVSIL
From the text: as §1

[8] = molecular target: T6, PKCζ(h) (Homo sapiens, UniProt Q05513); experiment: Tumor-associated kinase inhibition test; assay type: biochemical; details: read-out: Inhibitory rate (%)
T6 construct: purchased Eurofins Pharma Discovery Services UK Limited
T6 sequence (Q05513 whole entry): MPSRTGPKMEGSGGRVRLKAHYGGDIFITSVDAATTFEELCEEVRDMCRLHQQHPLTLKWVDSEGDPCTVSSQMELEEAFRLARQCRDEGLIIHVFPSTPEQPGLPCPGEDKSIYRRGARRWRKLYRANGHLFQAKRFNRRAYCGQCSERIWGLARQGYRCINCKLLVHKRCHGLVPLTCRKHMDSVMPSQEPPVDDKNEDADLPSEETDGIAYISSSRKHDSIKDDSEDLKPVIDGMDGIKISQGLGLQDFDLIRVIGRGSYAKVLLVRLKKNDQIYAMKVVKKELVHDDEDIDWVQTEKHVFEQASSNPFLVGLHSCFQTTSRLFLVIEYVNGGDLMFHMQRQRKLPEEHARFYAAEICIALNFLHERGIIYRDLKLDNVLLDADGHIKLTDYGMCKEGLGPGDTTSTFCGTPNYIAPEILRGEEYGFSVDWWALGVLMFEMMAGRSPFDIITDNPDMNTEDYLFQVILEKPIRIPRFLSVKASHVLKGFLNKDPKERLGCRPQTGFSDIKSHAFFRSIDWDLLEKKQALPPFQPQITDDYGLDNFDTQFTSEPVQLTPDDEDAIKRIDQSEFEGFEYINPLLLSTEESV
From the text: as §1

[9] = molecular target: T7, CDK5/p35(h) (Homo sapiens, UniProt Q00535); experiment: Tumor-associated kinase inhibition test; assay type: biochemical; details: read-out: Inhibitory rate (%)
T7 construct: purchased Eurofins Pharma Discovery Services UK Limited (contract assay service)
From the text: as §1

[10] = molecular target: T8, PI3Kinase(p110α(E542K)/p85α)(h) (Homo sapiens, UniProt P42336, E542K); experiment: Tumor-associated kinase inhibition test; assay type: biochemical; details: read-out: Inhibitory rate (%)
T8 construct: purchased Eurofins Pharma Discovery Services UK Limited (contract assay)
From the text: as §1

[11] = molecular target: T9, CDK2/cyclinA(h) (Homo sapiens, UniProt P24941); experiment: Tumor-associated kinase inhibition test; assay type: biochemical; details: read-out: Inhibitory rate (%)
T9 construct: purchased Eurofins Pharma Discovery Services UK Limited (contract assay service)
From the text: as §1

[12] = molecular target: T10, PI3Kinase(p110α/p85α)(h) (Homo sapiens, UniProt P42336); experiment: Tumor-associated kinase inhibition test; assay type: biochemical; details: read-out: Inhibitory rate (%)
T10 construct: purchased Eurofins Pharma Discovery Services UK Limited (contract assay)
T10 sequence (P42336 whole entry): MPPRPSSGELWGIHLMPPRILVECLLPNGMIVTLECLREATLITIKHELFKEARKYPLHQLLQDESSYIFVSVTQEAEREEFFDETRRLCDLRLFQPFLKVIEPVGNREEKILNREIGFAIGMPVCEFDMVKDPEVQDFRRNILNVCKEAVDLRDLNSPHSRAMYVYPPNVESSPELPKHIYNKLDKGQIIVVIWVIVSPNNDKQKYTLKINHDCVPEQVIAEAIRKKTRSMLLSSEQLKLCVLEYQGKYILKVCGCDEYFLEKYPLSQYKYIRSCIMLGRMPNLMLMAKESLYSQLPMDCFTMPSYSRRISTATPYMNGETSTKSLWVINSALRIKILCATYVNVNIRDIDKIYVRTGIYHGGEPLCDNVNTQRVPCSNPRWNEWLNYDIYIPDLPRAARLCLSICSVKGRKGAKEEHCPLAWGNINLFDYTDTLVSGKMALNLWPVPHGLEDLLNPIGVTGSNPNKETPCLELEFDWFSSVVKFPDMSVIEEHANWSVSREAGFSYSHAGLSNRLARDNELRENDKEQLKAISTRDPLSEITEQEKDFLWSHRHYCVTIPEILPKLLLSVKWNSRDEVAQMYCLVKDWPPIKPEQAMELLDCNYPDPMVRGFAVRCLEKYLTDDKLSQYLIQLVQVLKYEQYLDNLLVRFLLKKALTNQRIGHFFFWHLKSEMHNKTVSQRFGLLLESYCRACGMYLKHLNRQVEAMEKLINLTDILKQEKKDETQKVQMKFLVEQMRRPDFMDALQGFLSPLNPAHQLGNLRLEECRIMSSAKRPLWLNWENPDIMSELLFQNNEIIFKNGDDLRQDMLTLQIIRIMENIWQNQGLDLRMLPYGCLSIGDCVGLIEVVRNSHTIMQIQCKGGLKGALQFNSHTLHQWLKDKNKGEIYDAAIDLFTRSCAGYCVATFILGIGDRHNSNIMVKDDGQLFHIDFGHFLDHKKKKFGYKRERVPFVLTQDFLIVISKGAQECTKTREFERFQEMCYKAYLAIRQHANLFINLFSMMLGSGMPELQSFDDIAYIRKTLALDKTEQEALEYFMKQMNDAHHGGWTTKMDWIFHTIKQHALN
T10 sequence (P27986 whole entry partner): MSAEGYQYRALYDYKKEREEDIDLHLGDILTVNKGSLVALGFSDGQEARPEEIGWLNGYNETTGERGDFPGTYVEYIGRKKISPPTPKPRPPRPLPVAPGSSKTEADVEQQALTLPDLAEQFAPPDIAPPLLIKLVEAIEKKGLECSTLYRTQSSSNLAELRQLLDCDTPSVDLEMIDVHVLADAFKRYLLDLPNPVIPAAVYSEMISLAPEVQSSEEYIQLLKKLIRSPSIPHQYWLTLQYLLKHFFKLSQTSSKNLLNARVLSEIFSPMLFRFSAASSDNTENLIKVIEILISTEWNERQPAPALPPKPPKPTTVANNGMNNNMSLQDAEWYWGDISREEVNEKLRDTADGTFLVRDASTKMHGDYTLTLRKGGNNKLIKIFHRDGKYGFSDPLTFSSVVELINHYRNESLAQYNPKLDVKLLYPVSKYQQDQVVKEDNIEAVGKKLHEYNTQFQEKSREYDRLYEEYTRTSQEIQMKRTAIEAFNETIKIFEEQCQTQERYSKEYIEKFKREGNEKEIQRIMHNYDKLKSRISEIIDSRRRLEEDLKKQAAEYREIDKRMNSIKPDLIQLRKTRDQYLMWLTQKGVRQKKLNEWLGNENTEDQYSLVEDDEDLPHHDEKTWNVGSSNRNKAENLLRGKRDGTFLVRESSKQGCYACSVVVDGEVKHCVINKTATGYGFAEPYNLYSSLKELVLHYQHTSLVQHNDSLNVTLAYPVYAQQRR
From the text: as §1

[13] = molecular target: T11, ZAP-70(h) (Homo sapiens, UniProt P43403); experiment: Tumor-associated kinase inhibition test; assay type: biochemical; details: read-out: Inhibitory rate (%)
T11 construct: purchased Eurofins Pharma Discovery Services UK Limited
T11 sequence (P43403 whole entry): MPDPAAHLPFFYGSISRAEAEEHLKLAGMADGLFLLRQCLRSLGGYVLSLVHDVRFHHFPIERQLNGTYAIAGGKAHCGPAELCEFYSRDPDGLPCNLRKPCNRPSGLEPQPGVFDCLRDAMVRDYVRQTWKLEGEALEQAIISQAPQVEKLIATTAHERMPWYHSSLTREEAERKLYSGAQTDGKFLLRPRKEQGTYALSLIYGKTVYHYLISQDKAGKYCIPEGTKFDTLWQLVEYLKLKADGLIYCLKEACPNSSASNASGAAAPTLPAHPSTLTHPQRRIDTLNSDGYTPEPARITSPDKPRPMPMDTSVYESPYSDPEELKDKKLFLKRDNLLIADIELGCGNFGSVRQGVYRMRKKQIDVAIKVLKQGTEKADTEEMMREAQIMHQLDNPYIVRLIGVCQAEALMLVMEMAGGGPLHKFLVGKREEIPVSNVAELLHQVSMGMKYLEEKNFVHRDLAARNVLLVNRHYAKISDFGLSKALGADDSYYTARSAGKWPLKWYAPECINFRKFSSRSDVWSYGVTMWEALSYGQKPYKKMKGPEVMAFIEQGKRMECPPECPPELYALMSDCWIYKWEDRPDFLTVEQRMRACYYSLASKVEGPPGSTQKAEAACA
From the text: as §1

[14] = molecular target: T12, CDK1/cyclinB(h) (Homo sapiens, UniProt P06493); experiment: Tumor-associated kinase inhibition test; assay type: biochemical; details: read-out: Inhibitory rate (%)
T12 construct: purchased Eurofins Pharma Discovery Services UK Limited (contract assay service)
T12 sequence (P06493 whole entry): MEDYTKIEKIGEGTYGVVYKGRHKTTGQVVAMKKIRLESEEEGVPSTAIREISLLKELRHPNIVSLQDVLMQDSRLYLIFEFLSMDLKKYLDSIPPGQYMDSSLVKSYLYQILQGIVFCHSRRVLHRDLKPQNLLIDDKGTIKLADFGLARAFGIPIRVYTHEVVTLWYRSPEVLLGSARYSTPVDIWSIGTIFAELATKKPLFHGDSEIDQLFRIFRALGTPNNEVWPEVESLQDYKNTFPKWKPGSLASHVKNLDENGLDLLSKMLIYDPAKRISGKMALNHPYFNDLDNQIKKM
T12 sequence (P14635 whole entry partner): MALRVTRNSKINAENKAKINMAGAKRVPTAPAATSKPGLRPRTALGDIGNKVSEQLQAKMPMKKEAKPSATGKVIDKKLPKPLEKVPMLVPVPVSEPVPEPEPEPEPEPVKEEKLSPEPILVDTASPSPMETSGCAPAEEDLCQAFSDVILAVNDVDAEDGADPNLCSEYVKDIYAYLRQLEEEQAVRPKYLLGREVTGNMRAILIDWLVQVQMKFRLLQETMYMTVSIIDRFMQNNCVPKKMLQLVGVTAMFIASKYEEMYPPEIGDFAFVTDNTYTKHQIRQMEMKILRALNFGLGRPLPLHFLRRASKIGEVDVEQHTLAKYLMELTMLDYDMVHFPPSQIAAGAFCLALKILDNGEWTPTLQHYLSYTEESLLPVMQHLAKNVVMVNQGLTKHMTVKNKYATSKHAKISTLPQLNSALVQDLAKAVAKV
From the text: as §1

[15] = molecular target: T13, ASK1(h) (Homo sapiens, UniProt Q99683); experiment: Tumor-associated kinase inhibition test; assay type: biochemical; details: read-out: Inhibitory rate (%)
T13 construct: purchased Eurofins Pharma Discovery Services UK Limited (contract assay service)
From the text: as §1

[16] = molecular target: T14, CHK1(h) (Homo sapiens, UniProt O14757); experiment: Tumor-associated kinase inhibition test; assay type: biochemical; details: read-out: Inhibitory rate (%)
T14 construct: purchased Eurofins Pharma Discovery Services UK Limited (contract assay service)
From the text: as §1

[17] = molecular target: T15, Abl(T315I)(h) (Homo sapiens, UniProt P00519, T315I); experiment: Tumor-associated kinase inhibition test; assay type: biochemical; details: read-out: Inhibitory rate (%)
T15 construct: purchased Eurofins Pharma Discovery Services UK Limited (contract assay service)
From the text: as §1

[18] = molecular target: T16, cSRC(h) (Homo sapiens, UniProt P12931); experiment: Tumor-associated kinase inhibition test; assay type: biochemical; details: read-out: Inhibitory rate (%)
T16 construct: purchased Eurofins Pharma Discovery Services UK Limited (contract testing)
From the text: as §1

[19] = molecular target: T17, EphB2(h) (Homo sapiens, UniProt P29323); experiment: Tumor-associated kinase inhibition test; assay type: biochemical; details: read-out: Inhibitory rate (%)
T17 construct: purchased Eurofins Pharma Discovery Services UK Limited (contract testing)
From the text: as §1

C=C(C)n1c(=O)n(C(C)=O)c2ncc(Br)cc21 [FD162]
Down-regulation of PI3K/Akt/mTOR signaling pathway [1]: down-regulate PI3K/Akt/mTOR signaling pathway in a dose-dependent manner | Inhibitory rate (%) [2]: −4% | inhibition at 10 µM [3]: 3% | inhibition at 10 µM [4]: 4% | inhibition at 10 µM [5]: 7% | inhibition at 10 µM [6]: -1% | inhibition at 10 µM [7]: 6% | inhibition at 10 µM [8]: 5% | inhibition at 10 µM [9]: 0% | inhibition at 10 µM [10]: 4% | inhibition at 10 µM [11]: -2% | inhibition at 10 µM [12]: -1% | inhibition at 10 µM [13]: -5% | inhibition at 10 µM [14]: 1% | inhibition at 10 µM [15]: 4% | inhibition at 10 µM [16]: -14% | inhibition at 10 µM [17]: -14% | inhibition at 10 µM [18]: -4% | inhibition at 10 µM [19]: 7%
